# Measured values reported in patent US12472193B2, “Methods and compositions for treating and preventing respiratory related diseases and conditions with xylitol-headgroup lipid analogs” (National Jewish Health, priority 2017, dated 2025).
# “Also recorded” adds a separate entry of the source.
# Test system: RSV
# Test: Western blot analysis of phospholipid interference with RSV binding to HEp2 cells
# Assay type: cell-based, human RSV A2 strain
# Conditions: 50 μg/mL lipid, MOI 2.5, 2 hr
# Protocol: HEp2 cells were plated in a 48-well plate at a density of 1×10^5 per well, 48-hours prior to performing binding studies. A multiplicity of infection (MOI) of 2.5 was used and conditions of a control with no RSV, RSV alone and RSV plus 50 μg/mL of selected lipids were added to cells for a 2-hour incubation at 18° C. This lower temperature was used so that RSV would adsorb to the cell surface with minimal endocytosis. After binding, cells were washed 4 times with cold PBS to remove any unattached virus. 80 μL of SDS-PAGE loading buffer (sample buffer+protease inhibitor+DTT) was added to each well and the plate was set in boiling water for 1 minute to lyse cells and solubilize proteins. Cell lysates were recovered by scraping and pipteing and stored at −20° C. Subsequently, thawed lysates were boiled for 5 min, and proteins were resolved on 8-16% gradient Tris-SDS-polyacrylamide gels. The separated proteins were transferred to nitrocellulose membranes and subsequently incubated in blocking buffer containing 20 mM Tris-HCl buffer (pH 7.6), 137 mM NaCl, 0.1% Tween 20, and 5% nonfat milk for 1 hour. After blocking, primary RSV antibody conjugated to HRP was diluted 1:500 in blocking solution, added to the membrane and incubated overnight at 4° C. The membranes were washed with TBS containing 0.1% Tween for 30 min, replacing the buffer every 10 min. The immunoreactive protein was detected using coumaric acid and luminol reagents and exposed to film. Developed films were scanned and Image J software was used for protein quantification. Beta-Actin was used a control for amount of protein loaded.
# Because binding of lipid to RSV in a biochemical assay was not a good predictor of antiviral activity, PX lipids were tested for activity preventing viral attachment to the surface of cells. HEp2 cells were plated in a 48-well plate at a density of 1×10^5 per well, 48 hours prior to viral adsorption. RSV was added to cells at multiplicity of infection (MOI) 2.5 in the absence or presence of 50 μg/mL of select xylitol lipids. […] The moderately effective antiviral, DPPX was selected and the ineffective antiviral, 14:0 DEPX was selected. Viral adsorption to cells was performed at 18° C. to minimize endocytosis. RSV was incubated with HEp2 cells for 2 hours, rotating the plate every 30 minutes. Cells were washed with cold PBS to remove unbound virus and cells were lysed and collected. Cell lysates were electrophoresed on an SDS-PAGE gel, and transferred to nitrocellulose membrane. The RSV G protein was detected with antibody and Beta-actin was used as a protein loading control. The results are summarized and quantified in FIGS. 9A and 9B. In more detail, monolayers of HEp2 cells were incubated with RSV at a stoichiometry of 2.5 infectious particles/cell, at 0° C., to prevent endocytosis of virions. Following a 2 hr incubation the monolayers were washed three times with cold saline to remove unbound virus, and then the cells were harvested in a denaturing solution. The cell extracts were subjected to electrophoresis under reducing and denaturing conditions and the separated proteins were transferred to nitrocellulose. Viral proteins were detected by immunoblotting with polyclonal anti-RSV antibody and enhanced chemiluminescence. The immunoreactive bands were normalized using actin immunoblots. The immunoreactive viral proteins were quantified using Image J software. […] In contrast, POPG (PG) inhibits viral attachment by ˜85%, and the xylitol phospholipids 14:0 DEPX, POPX, 16:1 DPPX AND 18:1 DEPX inhibit viral attachment in the range of 80-90%.
SMILES,inhibition of RSV attachment to HEp2 cells,inhibition of viral attachment to HEp2 cells
"CCCCCCCCC=CCCCCCCCCOCC(COP(=O)(O)OCC(O)C(O)C(O)CO)OCCCCCCCCC=CCCCCCCCC (mixture of isomers) [18:1 DEPX, sn-1-O-octadecenyl, sn-2-O-octadecenyl sn-3 glycerol phosphoxylitol]",inhibit attachment; also recorded: prevented RSV attachment to HEp2 cells,–
"CCCCCCC=CCCCCCCCC(=O)OCC(COP(=O)(O)OCC(O)C(O)C(O)CO)OC(=O)CCCCCCCC=CCCCCCC (mixture of isomers) [16:1 DPPX, sn-1-palmitoleoyl, sn-2-palmitoleoyl sn-3 glycerol phosphoxylitol]",prevented RSV attachment to HEp2 cells,–
"CCCCCCCCC=CCCCCCCCC(=O)OCC(COP(=O)(O)OCC(O)C(O)C(O)CO)OC(=O)CCCCCCCC=CCCCCCCCC (mixture of isomers) [DOPX, sn-1-oleoyl, sn-2-oleoyl sn-3 glycerol phosphoxylitol]",inhibit attachment,–
"CCCCCCCC/C=C\CCCCCCCC(=O)O[C@H](COC(=O)CCCCCCCCCCCCCCC)COP(=O)(O)OCC(O)C(O)C(O)CO (some centres unmarked) [POPX, sn-1-palmitoyl, sn-2-oleoyly sn-3 glycerol phosphoxylitol]",prevented RSV attachment to HEp2 cells,–
"CCCCCCCCCCCCCCCC(=O)OCC(COP(=O)(O)OCC(O)C(O)C(O)CO)OC(=O)CCCCCCCCCCCCCCC (centres unmarked) [DPPX, sn-1-palmitoyl, sn-2-palmitoyl sn-3 glycerol phosphoxylitol]",not inhibited; also recorded: did not,–
"CCCCCCCC/C=C\CCCCCCCC(=O)O[C@H](COC(=O)CCCCCCCCCCCCCCC)COP(=O)([O-])OCC[N+](C)(C)C [POPC, 1-palmitoyl-2-oleoyl-sn-glycero-3-phosphocholine, reference compound]",not inhibited,–
"CCCCCCCCCCCCCCOC[C@H](COP(=O)(O)OCC(O)C(O)C(O)CO)OCCCCCCCCCCCCCC (mixture of isomers) [14:0 DEPX, sn-1-O-myristyl, sn-2-O-myristyl sn-3 glycerol phosphoxylitol]",appears to prevent viral binding to cells; also recorded: prevented RSV from binding to the cell surface,–
"CCCCCCCC/C=C\CCCCCCCC(=O)O[C@H](COC(=O)CCCCCCCCCCCCCCC)COP(=O)(O)OCC(O)CO (some centres unmarked) [POPG, palmitoyl-oleoyl-phosphatidylglycerol, reference compound]",–,~85%
